Source: patent US20230416245A1, “ADENOSINE ANALOGS FOR THE TREATMENT OF DISEASE” (BIOINTERVENE, INC., priority 2020, published 2023)

What was measured:
[1] = biological target: T1, human adenosine A3 receptor (Homo sapiens (Human), UniProt P0DMS8); test: Adenosine receptor binding assay ([125I]-AB-MECA competition); details: inhibition of 0.15 nM [125I]-AB-MECA binding, membranes of cells expressing human A3 receptor; read-out: hA3 Ki: Ki
Procedure, shortened: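 Competition against 0.15 nM [125I]-AB-MECA was run for 120 min at room temperature on 20 μg human A3-transfected cell membranes in 50 mM Tris pH 7.4, with or without 10 mM MgCl2. Bound label was counted after filtration. Ki was derived by Cheng-Prusoff from Hill-fitted IC50 values.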

[2] = biological target: T1, human adenosine A3 receptor; test: Intracellular cAMP levels (inhibition of forskolin-stimulated cAMP production); type: cell-based; details: for EC50: CHO cells expressing human adenosine A3 receptors, forskolin 10 μM; for CAMP Efficacy (%): maximal response as percentage of the response produced by 100 nM IB-MECA
Procedure, shortened: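 CHO-K1 cells stably expressing human A3 receptor were exposed to compound (0.1 nM–1 μM) for 5 min at 37 °C, then 10 μM forskolin for 10 min. cAMP measured by competitive enzyme immunoassay (OD 450 nm); EC50 from Hill fit of inhibition, maximum relative to 100 nM IB-MECA.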

T1 sequence (P0DMS8 whole entry): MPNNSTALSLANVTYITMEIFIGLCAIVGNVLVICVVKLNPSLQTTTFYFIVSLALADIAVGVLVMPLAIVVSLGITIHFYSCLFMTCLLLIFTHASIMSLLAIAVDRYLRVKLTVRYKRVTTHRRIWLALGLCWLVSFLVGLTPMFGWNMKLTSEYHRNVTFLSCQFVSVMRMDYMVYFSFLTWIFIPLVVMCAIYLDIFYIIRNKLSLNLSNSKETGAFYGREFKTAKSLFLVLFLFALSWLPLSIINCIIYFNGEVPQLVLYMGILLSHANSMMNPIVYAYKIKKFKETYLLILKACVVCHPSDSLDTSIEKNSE

| Ki [1] [nM] | EC50 [2] [nM] | CAMP Efficacy (%) [2] [%] | SMILES |
| --- | --- | --- | --- |
| 4.75 | 1.33 | 38.22 | O[C@@H]1[C@H](O)[C@@H]2C[C@@H]2[C@H]1n1cnc2c(NCc3cc(Cl)ccc3Cl)cc(Cl)nc21 [Compound 68, (1R,2R,3S,4R,5S)-4-(5-chloro-7-((2,5-dichlorobenzyl)amino)-3H-imidazo[4,5-b]pyridin-3-yl)bicyclo[3.1.0]hexane-2,3-dio] |
| 0.133 | 0.1 | 104.76 | CCNc1cc(C#N)nc2c1ncn2[C@H]1[C@H](O)[C@H](O)[C@]2(C(=O)NC)C[C@H]12 [Compound 70, (1S,2R,3S,4R,5S)-4-(5-cyano-7-(ethylamino)-3H-imidazo[4,5-b]pyridin-3-yl)-2,3-dihydroxy-N-methylbicyclo[3.1.0]hexane-1-carboxamide] |
| 2.59 | 15.2 | 52 | CCNc1c(C#N)c(Cl)nc2c1ncn2[C@H]1[C@H](O)[C@H](O)[C@@H]2C[C@@H]21 [Compound 93, 5-chloro-3-((1S,2R,3S,4R,5R)-3,4-dihydroxybicyclo[3.1.0]hexan-2-yl)-7-(ethylamino)-3H-imidazo[4,5-b]pyridine-6-carbonitrile] |
